Experimental data published in US8877819B2, “Methods for treating heat stress and related compositions” (Georgetown University, priority 2008, dated 2014).
Marks after values point to notes of the source that are not given here.

How the values were obtained:
DNA fragmentation = DNA fragmentation in liver and kidney; type: in vivo, Zucker Fatty Rats; conditions: Experiment 2, captopril 30 mg/kg in feed
Procedure: Frozen liver and kidney samples were homogenized in lysis buffer (5 mM Tris-HCl, 20 mM EDTA, 0.5% Triton X-100, pH 8.0). Homogenates were centrifuged at 27,000 g for 20 min to separate intact chromatin in the pellet from fragmented DNA in the supernatant fraction. Pellets were re-suspended in 0.5 M perchloric acid and 5.5 M perchloric acid was added to supernatant samples to reach a concentration of 0.5 M. Samples were heated at 90° C. for 15 min and centrifuged at 1,500 g for 10 min to remove protein. Resulting supernatants were reacted with diphenylamine for 16-20 h at room temperature. Absorbance was measured at 600 nm. DNA fragmentation in control samples was expressed as percentage of total DNA appearing in the supernatant fraction. Treatment effects are reported as percent of control fragmentation.

IL-6 = test: Cytokine assay (ELISA), IL-6; type: in vivo, Zucker Fatty Rats; conditions: Experiment 2; captopril 30 mg/kg in feed
Procedure: (§1) Various cytokines were measured by ELISA methodology using kits from the following sources: rat MCP-1—Assay Designs Inc., Ann Arbor, Mich.; rat adiponectin—ALPCO Diagnostics, Salem, N.H.; TNF-a, ALPCO Diagnostics, Salem, N.H.; RAT IL-1B—Assay Designs Inc, Ann Arbor, Mich.; RAT IL-6—ALPCO Diagnostics, Salem, N.H.

Organ weights = type: in vivo, Zucker Fatty Rats; conditions: Experiment 2; after sacrifice; captopril 30 mg/kg in feed; in g (unit assumed)
Procedure: Organ weights were measured immediately after sacrifice of the rats.

[1] = system: Thiobarbituric acid-reactive substances (TBARS); test: Lipid peroxidation (TBARS) in hepatic and kidney homogenates; type: in vivo, Zucker Fatty Rats; conditions: Experiment 2; captopril 30 mg/kg in feed
Procedure: Thiobarbituric acid-reactive substances (TBARS) as an index of lipid peroxidation were determined on hepatic and kidney homogenates from control and treated and malondialdehyde (MDA) was used as the standard.

Zucker Fatty Rats (ZFR) [2] = test: Survival after accidental heat stress; type: in vivo; conditions: Experiment 1, captopril 30 mg/kg in feed
Procedure: For two experiments, a total of 96 Zucker Fatty Rats (ZFR) (Charles River, Wilmington, Mass.) were used: 48 in each experiment were divided into four groups of 12 rats. Initial body weights ranged between 434 and 624 g in the first experiment and between 388 and 520 g in the second. All rats consumed a regular rat diet in crushed form (Purina Rat Chow, Ralston Purina, St. Louis, Mo.). Sucrose was added to the pulverized regular rat chow (30%, w/w). The four groups comprised a control eating the described diet and three test groups eating the same diet but with the addition of captopril or astaxanthin (two different doses). […] The amount of astaxanthin added was based on 2% (w/w) content of astaxanthin to powder. The first study continued for 57 days while the second continued for 75 days.
On the 42nd day, the temperature of rodent quarters rose from 72° F. to the range of 86-89° F. It was estimated that the rats were exposed to this elevated temperature for 5-6 hours. […] In contrast all ZFR in the Hi Asta group survived (11/11).
On a hot summer day, the air conditioning system in the animal quarters ceased functioning. The internal temperature of the animal quarters rose to a Fahrenheit range in the high 80's. Due to this heat stress, several ZFR that had already undergone almost six weeks of study expired. […] This can be attributed to poor stress handling of ZFR.

Zucker Fatty Rats (ZFR) [3] = test: Insulin Challenge Testing (ICT); type: in vivo; conditions: Experiment 1; survivors after heat stress; captopril 30 mg/kg in feed
Procedure: Testing was commenced after 17-19 hours of food deprivation. For ICT, 0.6 unit of regular insulin/kg BW (Eli Lilly Co., Indianapolis, Ind.) was administered, and blood for glucose determination was obtained from the tail vein at 7.5 min after injection. Glucose was estimated using commercial glucose strips (Lifescan, One Touch Ultra, […], Calif.).

TNF-α = test: Cytokine assay (ELISA), TNF-α; type: in vivo, Zucker Fatty Rats; conditions: Experiment 2; captopril 30 mg/kg in feed
Procedure: as §1

Blood chemistries = type: in vivo, Zucker Fatty Rats; conditions: Experiment 2; blood at end of study; captopril 30 mg/kg in feed
Source text: Blood for chemical analysis was obtained at the end of the study following removal of food four hours earlier. Blood chemistry values were obtained via dry chemistry procedures using a Johnson and Johnson (Langhorne, Pa.) Vitros® 250 instrument.

Zucker Fatty Rats (ZFR) [4] = test: Intraperitoneal Glucose Tolerance Test (ipGTT); type: in vivo; conditions: Experiment 2, captopril 30 mg/kg in feed
Procedure: During the ipGTT, glucose (2.5 g/kg BW) was injected intraperitoneally (i.p.) to challenge the tolerance to glucose. Drops of blood were obtained from the tail at 0, 30, 60, 120, 180 and 240 minutes post injection. Glucose was estimated using commercial glucose strips (Lifescan, One Touch Ultra, […], Calif.).

IL-1B = test: Cytokine assay (ELISA), IL-1B; type: in vivo, Zucker Fatty Rats; conditions: Experiment 2; captopril 30 mg/kg in feed
Procedure: as §1

[5] = percentage of total DNA in the supernatant fraction

**Q.** Which “DNA Fragmentation (% Control), Kidney” value (DNA fragmentation) does the source give for `C[C@H](CS)C(=O)N1CCC[C@H]1C(=O)O` [Captopril, reference compound] here?
**A.** 105 % Control

**Q.** What about the “DNA Fragmentation (% Control), Liver” value (DNA fragmentation) of the same molecule?
**A.** 100 % Control

**Q.** And the “DNA Fragmentation, Kidney” value (DNA fragmentation; [5])?
**A.** 4.5 ± 0.51

**Q.** What about the “DNA Fragmentation, Liver” value (DNA fragmentation; [5]) of the same molecule?
**A.** 4.0 ± 0.17

**Q.** And the IL-6 (IL-6)?
**A.** 391.0 ± 12*^

**Q.** What about the “Organ weight, Epidydimal fat pad” value (Organ weights) of the same molecule?
**A.** 19.1 ± 1.2

**Q.** What about the “Organ weight, Kidney (left)” value (Organ weights) of the same molecule?
**A.** 2.3 ± 0.09

**Q.** What about the “Organ weight, Kidney (right)” value (Organ weights) of the same molecule?
**A.** 2.3 ± 0.09

**Q.** What about the “Organ weight, Liver” value (Organ weights) of the same molecule?
**A.** 43.1 ± 2.0

**Q.** What about the “Lipid peroxidation, Kidney” value [1] of the same molecule?
**A.** 3.4 ± 0.44 nmoles MDA/mg protein

**Q.** And the “Lipid peroxidation, Liver” value [1]?
**A.** 4.0 ± 0.29 nmoles MDA/mg protein

**Q.** What about the “survival percentage after heat stress” value (Zucker Fatty Rats (ZFR) [2]) of the same molecule?
**A.** 36%

**Q.** And the “survival after heat stress (survivors/group)” value (Zucker Fatty Rats (ZFR) [2]; day 42, 86-89° F. for 5-6 hours)?
**A.** 4/11

**Q.** And the “Insulin: decrease in circulating glucose after insulin challenge (ICT)” value (Zucker Fatty Rats (ZFR) [3])?
**A.** -9.8 ± 3.5 mg/dL

**Q.** What about the TNF-α (TNF-α) of the same molecule?
**A.** 242.0 ± 13.6

**Q.** And the ALP (alkaline phosphatase) (Blood chemistries)?
**A.** 333 ± 22.1 U/L

**Q.** What about the “ALT (alanine aminotransferase)” value (Blood chemistries) of the same molecule?
**A.** 89.4 ± 13.9 units

**Q.** And the “AST (aspartate aminotransferase)” value (Blood chemistries)?
**A.** 93.0 ± 12.8 units

**Q.** And the BUN (Blood chemistries)?
**A.** 14.0 ± 0.5 mg/dL

**Q.** What about the CO2 (Blood chemistries) of the same molecule?
**A.** 24.1 ± 0.9 mM

**Q.** What about the Calcium (Blood chemistries) of the same molecule?
**A.** 11.3 ± 0.6 mg/dL

**Q.** What about the Chloride (Blood chemistries) of the same molecule?
**A.** 98.6 ± 1 mM

**Q.** And the Cholesterol (Blood chemistries)?
**A.** 281.0 ± 15.6 mg/dL

**Q.** And the Creatinine (Blood chemistries)?
**A.** 0.4 ± 0.02 mg/dL

**Q.** What about the Glucose (Blood chemistries) of the same molecule?
**A.** 327.0 ± 23.0 mg/dL

**Q.** And the Potassium (Blood chemistries)?
**A.** 6 ± 0.04 mM

**Q.** What about the Sodium (Blood chemistries) of the same molecule?
**A.** 140 ± 0.5 mM

**Q.** And the Triglycerides (Blood chemistries)?
**A.** 1029.0 ± 73.6 mg/dL

**Q.** What about the “insulin concentration one hour after the glucose challenge” value (Zucker Fatty Rats (ZFR) [4]; glucose 2.5 g/kg i.p.) of the same molecule?
**A.** 2.37 ng/mL

**Q.** And the Baseline insulin concentration (Zucker Fatty Rats (ZFR) [4]; ipGTT baseline)?
**A.** 0.82 ng/mL

**Q.** And the “average baseline glucose level” value (Zucker Fatty Rats (ZFR) [4]; ipGTT baseline)?
**A.** 302 mg/dL

**Q.** What about the IL-1β (IL-1B) of the same molecule?
**A.** 416.0 ± 14.8
